Results on 23 molecules are retold here after patent publication US9771369B2, “Compounds and methods for kinase modulation, and indications therefor” (Plexxikon Inc., priority 2014, dated 2017).

The structures appear in SMILES notation.

The target of the experiment is c-kit mutant D816V (Homo sapiens (Human), UniProt P10721, D816V/DEL694-753). Description: c-Kit mutant D816V biochemical assay (AlphaScreen kinase activity). In short, it runs like this: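 AlphaScreen with streptavidin donor and PY30 acceptor beads read phosphotyrosine on biotin-(E4Y)10 substrate (30 nM). Enzyme: E. coli-expressed N-His c-Kit D816V, residues 551-934 lacking kinase insert 694-753. Reaction 30 min at room temperature, 10 μM ATP, 5% DMSO; IC50 fitted over 8 three-fold dilutions.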
Sequence of c-kit mutant D816V (P10721 other isoform, or with tags, fused parts or gaps D816V/del 694-753): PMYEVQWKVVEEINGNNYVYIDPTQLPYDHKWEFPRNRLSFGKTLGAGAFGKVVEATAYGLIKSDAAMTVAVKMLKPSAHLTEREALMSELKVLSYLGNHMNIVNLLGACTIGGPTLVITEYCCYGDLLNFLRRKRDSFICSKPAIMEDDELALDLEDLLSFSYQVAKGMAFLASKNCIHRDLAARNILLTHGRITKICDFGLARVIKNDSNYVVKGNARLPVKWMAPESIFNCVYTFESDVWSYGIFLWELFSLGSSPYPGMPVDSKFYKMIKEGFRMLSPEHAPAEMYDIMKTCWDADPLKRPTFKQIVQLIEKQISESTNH
Background: In Alpha technology, singlet oxygen from a donor bead excites a nearby acceptor bead.
By IC50 is commonly meant the point on the concentration scale where inhibition reaches its midpoint. Low readings indicate greater potency in that assay, high ones weaker potency in that assay. Turning to `Cc1nc(C2CCN(c3ncnc4[nH]c(-c5ccc(F)cc5)cc34)CC2)[nH]c1-c1ccccc1` [P-3002, 6-(4-fluorophenyl)-4-[4-(4-methyl-5-phenyl-1H-imidazol-2-yl)-1-piperidyl]-7H-pyrrolo[2,3-d]pyrimidine], the IC50 was 0.0001 to 1 µM.
For `COc1cc(-c2cc3c(N4CCC(c5nc(C)c(-c6ccccc6)[nH]5)CC4)ncnc3[nH]2)ccn1` [P-3003, 6-(2-methoxy-4-pyridyl)-4-[4-(4-methyl-5-phenyl-1H-imidazol-2-yl)-1-piperidyl]-7H-pyrrolo[2,3-d]pyrimidine] the value was 0.0001 to 1 µM.
`Cc1cc2c(N3CCC(c4nc(C)c(-c5ccccc5)[nH]4)CC3)ncnc2[nH]1` [P-3004, 6-methyl-4-[4-(4-methyl-5-phenyl-1H-imidazol-2-yl)-1-piperidyl]-7H-pyrrolo[2,3-d]pyrimidine]: the IC50 was 1 to 10 µM.
For `Cc1cc2c(N3CCC(c4nc(C)c(-c5ccc(F)cc5)[nH]4)CC3)ncnc2[nH]1` [P-3005, 4-[4-[5-(4-fluorophenyl)-4-methyl-1H-imidazol-2-yl]-1-piperidyl]-6-methyl-7H-pyrrolo[2,3-d]pyrimidine] the value was 1 to 10 µM; for `COc1cc(-c2cc3c(N4CCC(c5nc(C)c(-c6cccc(F)c6)[nH]5)CC4)ncnc3[nH]2)ccn1` [P-3019, 4-[4-[5-(3-fluorophenyl)-4-methyl-1H-imidazol-2-yl]-1-piperidyl]-6-(2-methoxy-4-pyridyl)-7H-pyrrolo[2,3-d]pyrimidine], 0.0001 to 1 µM.
In the case of `Cc1nc(C2CCN(c3ncnc4[nH]c(-c5ccc(C#N)cc5)cc34)CC2)[nH]c1-c1ccc(F)cc1` [P-3020, 4-[4-[4-[5-(4-fluorophenyl)-4-methyl-1H-imidazol-2-yl]-1-piperidyl]-7H-pyrrolo[2,3-d]pyrimidin-6-yl]benzonitrile] it was 0.0001 to 1 µM; in that of `COc1cccc(-c2[nH]c(C3CCN(c4ncnc5[nH]c(-c6ccc(C#N)cc6)cc45)CC3)nc2C)c1` [P-3021, 4-[4-[4-[5-(3-methoxyphenyl)-4-methyl-1H-imidazol-2-yl]-1-piperidyl]-7H-pyrrolo[2,3-d]pyrimidin-6-yl]benzonitrile], 0.0001 to 1 µM.
In the case of `COc1cccc(-c2[nH]c(C3CCN(c4ncnc5[nH]c(-c6ccnc(OC)c6)cc45)CC3)nc2C)c1` [P-3022, 4-[4-[5-(3-methoxyphenyl)-4-methyl-1H-imidazol-2-yl]-1-piperidyl]-6-(2-methoxy-4-pyridyl)-7H-pyrrolo[2,3-d]pyrimidine] it was 0.0001 to 1 µM.
Molecule `COc1cc(-c2cc3c(N4CCC(c5nc(C)c(-c6ccc(OC)c(C)c6)[nH]5)CC4)ncnc3[nH]2)ccn1` [P-3023, 4-[4-[5-(4-methoxy-3-methyl-phenyl)-4-methyl-1H-imidazol-2-yl]-1-piperidyl]-6-(2-methoxy-4-pyridyl)-7H-pyrrolo[2,3-d]pyrimidine] showed an IC50 of 0.0001 to 1 µM.
In the case of `CCOc1cccc(-c2[nH]c(C3CCN(c4ncnc5[nH]c(-c6ccc(F)cc6)cc45)CC3)nc2C)c1` [P-3024, 4-[4-[5-(3-ethoxyphenyl)-4-methyl-1H-imidazol-2-yl]-1-piperidyl]-6-(4-fluorophenyl)-7H-pyrrolo[2,3-d]pyrimidine] it was 0.0001 to 1 µM.
In the case of `CCOc1cccc(-c2[nH]c(C3CCN(c4ncnc5[nH]c(-c6ccc(C#N)cc6)cc45)CC3)nc2C)c1` [P-3025, 4-[4-[4-[5-(3-ethoxyphenyl)-4-methyl-1H-imidazol-2-yl]-1-piperidyl]-7H-pyrrolo[2,3-d]pyrimidin-6-yl]benzonitrile] it was 0.0001 to 1 µM; in that of `CCOc1ccc(-c2[nH]c(C3CCN(c4ncnc5[nH]c(-c6ccc(F)cc6)cc45)CC3)nc2C)cc1` [P-3026, 4-[4-[5-(4-ethoxyphenyl)-4-methyl-1H-imidazol-2-yl]-1-piperidyl]-6-(4-fluorophenyl)-7H-pyrrolo[2,3-d]pyrimidine], 0.0001 to 1 µM.
In the case of `CCOc1ccc(-c2[nH]c(C3CCN(c4ncnc5[nH]c(-c6ccc(C#N)cc6)cc45)CC3)nc2C)cc1` [P-3027, 4-[4-[4-[5-(4-ethoxyphenyl)-4-methyl-1H-imidazol-2-yl]-1-piperidyl]-7H-pyrrolo[2,3-d]pyrimidin-6-yl]benzonitrile] it was 0.0001 to 1 µM; in that of `COc1ccc(-c2[nH]c(C3CCN(c4ncnc5[nH]c(-c6ccc(F)cc6)cc45)CC3)nc2C)cc1` [P-3028, 6-(4-fluorophenyl)-4-[4-[5-(4-methoxyphenyl)-4-methyl-1H-imidazol-2-yl]-1-piperidyl]-7H-pyrrolo[2,3-d]pyrimidine], 0.0001 to 1 µM.
`COc1ccc(-c2[nH]c(C3CCN(c4ncnc5[nH]c(-c6ccc(F)cc6)cc45)CC3)nc2C)cc1C` [P-3029, 6-(4-fluorophenyl)-4-[4-[5-(4-methoxy-3-methyl-phenyl)-4-methyl-1H-imidazol-2-yl]-1-piperidyl]-7H-pyrrolo[2,3-d]pyrimidine] showed an IC50 of 0.0001 to 1 µM.
For `COc1ccc(-c2[nH]c(C3CCN(c4ncnc5[nH]c(-c6ccc(C#N)cc6)cc45)CC3)nc2C)cc1C` [P-3030, 4-[4-[4-[5-(4-methoxy-3-methyl-phenyl)-4-methyl-1H-imidazol-2-yl]-1-piperidyl]-7H-pyrrolo[2,3-d]pyrimidin-6-yl]benzonitrile] the value was 0.0001 to 1 µM; for `CCOc1ccc(-c2[nH]c(C3CCN(c4ncnc5[nH]c(-c6ccnc(OC)c6)cc45)CC3)nc2C)cc1` [P-3031, 4-[4-[5-(4-ethoxyphenyl)-4-methyl-1H-imidazol-2-yl]-1-piperidyl]-6-(2-methoxy-4-pyridyl)-7H-pyrrolo[2,3-d]pyrimidine], 0.0001 to 1 µM; for `Cc1nc(C2(C)CCN(c3ncnc4[nH]c(-c5ccc(F)cc5)cc34)CC2)[nH]c1-c1ccccc1` [P-3032, 6-(4-fluorophenyl)-4-[4-methyl-4-(4-methyl-5-phenyl-1H-imidazol-2-yl)-1-piperidyl]-7H-pyrrolo[2,3-d]pyrimidine], 0.0001 to 1 µM.
For `COc1cc(-c2cc3c(N4CCC(C)(c5nc(C)c(-c6ccccc6)[nH]5)CC4)ncnc3[nH]2)ccn1` [P-3033, 6-(2-methoxy-4-pyridyl)-4-[4-methyl-4-(4-methyl-5-phenyl-1H-imidazol-2-yl)-1-piperidyl]-7H-pyrrolo[2,3-d]pyrimidine] the value was 0.0001 to 1 µM.
In the case of `CCOc1cccc(-c2[nH]c(C3CCN(c4ncnc5[nH]c(-c6ccnc(OC)c6)cc45)CC3)nc2C)c1` [P-3034, 4-[4-[5-(3-ethoxyphenyl)-4-methyl-1H-imidazol-2-yl]-1-piperidyl]-6-(2-methoxy-4-pyridyl)-7H-pyrrolo[2,3-d]pyrimidine] it was 0.0001 to 1 µM; in that of `Cc1nc(C2CCN(c3ncnc4[nH]c(-c5ccc(F)cc5)cc34)CC2)[nH]c1-c1ccc(Cl)cc1` [P-3035, 4-[4-[5-(4-chlorophenyl)-4-methyl-1H-imidazol-2-yl]-1-piperidyl]-6-(4-fluorophenyl)-7H-pyrrolo[2,3-d]pyrimidine], 0.0001 to 1 µM.
In turn, `COc1ccc(-c2[nH]c(C3CCN(c4ncnc5[nH]c(-c6ccc(F)cc6)cc45)CC3)nc2C)cc1OC` [P-3036, 4-[4-[5-(3,4-dimethoxyphenyl)-4-methyl-1H-imidazol-2-yl]-1-piperidyl]-6-(4-fluorophenyl)-7H-pyrrolo[2,3-d]pyrimidine] gave an IC50 of 0.0001 to 1 µM.
`COc1cc(-c2cc3c(N4CCC(c5nc(C)c(-c6ccc(Cl)cc6)[nH]5)CC4)ncnc3[nH]2)ccn1` [P-3037, 4-[4-[5-(4-chlorophenyl)-4-methyl-1H-imidazol-2-yl]-1-piperidyl]-6-(2-methoxy-4-pyridyl)-7H-pyrrolo[2,3-d]pyrimidine] gave an IC50 of 0.0001 to 1 µM.
